Like-named read-outs stand apart in the source and are kept apart here.
What was measured:
Assay type in all cases: cell-based
hGPR65 = target: T1, hGPR65 (Homo sapiens, UniProt Q8IYL9); experiment: cAMP detection in HeLa expression cell line, hGPR65; settings: for Emax: HeLa, relative to 100uM forskolin (100%) and DMSO (0%), read-out: hGPR Max Activity %
T1 construct: expressed in transfected cells; host or cells: HeLa (ATCC CCL-2), lentiviral transduction, pLX317
Summary of the method: (§1)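 HeLa cells stably expressing C-terminally V5-tagged receptor or GFP (lentiviral, puromycin 3 μg/ml) stimulated at 1500 cells per well for 30 min at RT with compound (10 mM DMSO stock) in stimulation buffer at pH 7.2. cAMP detected by Lance Ultra TR-FRET after lysis and 1 h detection, excitation 337 nm, emission 620/665 nm.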

hGPR65-SmBiT = target: T2, hGPR65-SmBiT (Homo sapiens, UniProt Q8IYL9); experiment: Nano-BiT target engagement, LgBiT-mGs recruitment to hGPR65-SmBiT in Expi293F cells
T2 construct: expressed in transfected cells; host or cells: Expi293F (Gibco), transient transfection
Summary of the method: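 Expi293F cells co-transfected (500 ng each plasmid) with receptor-SmBiT and LgBiT-mGs constructs, assayed 24 h later in 0.1% PBS-BSA pH 7.4 at room temperature. Luminescence from Nano-Glo Live Cell Reagent recorded in 90 s cycles, with 10 baseline cycles before compound addition.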

mGPR65 = target: T3, mGPR65 (Mus musculus, UniProt Q61038); experiment: cAMP detection in HeLa expression cell line, mGPR65; settings: for Emax: HeLa, relative to 100uM forskolin (100%) and DMSO (0%), read-out: mGPR Max Activity %
T3 construct: expressed in transfected cells; host or cells: HeLa (ATCC CCL-2), lentiviral transduction, pLX317
Summary of the method: as §1

mGPR65-SmBiT = target: T4, mGPR65-SmBiT (Mus musculus, UniProt Q61038); experiment: Nano-BiT target engagement, LgBiT-mGs recruitment to mGPR65-SmBiT; settings: 10 μM
T4 construct: expressed in transfected cells; host or cells: Expi293F (Gibco), transient transfection
Description: Target engagement was measured in Expi293F (Gibco, 100044202) cells using the Nano-Glo Live Cell Assay System (Promega, N2011). Nano-BiT plasmids were cloned from GPR65-, GPR4-, and GPR68-Tango plasmids. GPR65-Tango (Addgene plasmid # 66370; http://n2t.net/addgene:66370; RRID:Addgene_66370), GPR4-Tango (Addgene plasmid # 66358; http://n2t.net/addgene:66358; RRID:Addgene_66358), and GPR68-Tango (Addgene plasmid # 66371; http://n2t.net/addgene:66371; RRID:Addgene_66371) were gifts from Bryan Roth. Expi293F cells were transfected 1 day before kinetics with 500 ng of each plasmid using ExpiFectamine 293 Transfection Kit (Gibco, A14525). After 24 hours, cells were collected, washed, and resuspended in room temperature 0.1% PBS-BSA, adjusted to pH 7.4 using 1 M NaOH. Cells were transferred to white opaque 96-well microplates (100 μl per well, PerkinElmer, 6005290), followed by addition of the Nano-Glo Live Cell Reagent (25 μl per well). Baseline luminescence was measured for 10 cycles (1 cycle = 90 s) before adding compounds. All luminescence measurements were made on BMG Labtech PHERAstar FSX. Data analysis was performed using GraphPad Prism.

[1] = 1st hGPR column pair, NA = no activity
[2] = 2nd hGPR column pair, NA = no activity
[3] = 2nd mGPR column pair, NA = no activity

T2 sequence (Q8IYL9 whole entry): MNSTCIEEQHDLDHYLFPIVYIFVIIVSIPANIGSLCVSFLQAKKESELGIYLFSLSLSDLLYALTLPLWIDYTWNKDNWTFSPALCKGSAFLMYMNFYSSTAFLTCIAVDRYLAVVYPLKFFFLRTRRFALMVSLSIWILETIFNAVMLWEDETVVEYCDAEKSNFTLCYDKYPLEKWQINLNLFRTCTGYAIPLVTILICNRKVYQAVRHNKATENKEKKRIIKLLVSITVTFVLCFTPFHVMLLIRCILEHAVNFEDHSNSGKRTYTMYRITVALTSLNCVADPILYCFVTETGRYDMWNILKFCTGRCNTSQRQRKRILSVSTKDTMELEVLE
T1 sequence (Q8IYL9 whole entry): as above
T4 sequence (Q61038 whole entry): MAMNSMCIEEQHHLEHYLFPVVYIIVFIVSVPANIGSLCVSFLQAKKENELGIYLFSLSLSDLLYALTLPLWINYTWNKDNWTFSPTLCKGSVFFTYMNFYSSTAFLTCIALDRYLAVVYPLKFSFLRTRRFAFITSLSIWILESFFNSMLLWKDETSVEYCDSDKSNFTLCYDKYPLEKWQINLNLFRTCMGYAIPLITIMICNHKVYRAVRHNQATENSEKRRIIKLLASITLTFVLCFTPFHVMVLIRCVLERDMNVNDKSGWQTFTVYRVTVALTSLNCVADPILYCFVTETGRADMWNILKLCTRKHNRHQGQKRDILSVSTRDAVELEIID
T3 sequence (Q61038 whole entry): as above

## CN1N=C(SCc2ccc(Cl)cc2Cl)Sc2c1cnn(C)c2=O [BTB09089, reference compound]
hGPR65; 1st hGPR column pair, NA = no activity, read-out: hGPR EC50
  EC50: 6.35 µM
hGPR65; 2nd hGPR column pair, NA = no activity, read-out: hGPR EC50
  EC50: 1.37 µM
hGPR65; [1]
  Emax: 53.5%
hGPR65; [2]
  Emax: 31.1%
hGPR65-SmBiT; 10 μM
  mGs recruitment / engagement of hGPR65: limited activity toward hGPR65
mGPR65; 2nd mGPR column pair, NA = no activity, read-out: mGPR EC50
  EC50: 0.458 µM
mGPR65; [3]
  Emax: 76.4%
mGPR65; NA = no activity
  Emax: 82.8%
mGPR65-SmBiT
  mGs recruitment / engagement of mGPR65: increases in luminescence independent of pH changes

## Cc1ccc(NC(=O)c2cnn3c(O)cc(-c4ccc(COC(C)C)cc4)nc23)nc1 [BRD5075, O=C(NC1=NC=C(C)C=C1)C2=C3N(N=C2)C(O)=CC(C4=CC=C(COC(C)C)C=C4)=N3]
hGPR65; 0 to 50 μM, pH range of 6.6 to 7.6
  mode of action from pH-dependent cAMP production: PAMs
hGPR65; 1.56 μM, pH 7.2
  activity for hGPR65 among prioritized molecules: highest activity
hGPR65; [1]
  Emax: 80.3%
hGPR65; [2]
  Emax: 78.6%
hGPR65; hGPR EC50 (uM), NA = no activity
  EC50: 0.377 µM
hGPR65; hGPR EC50 (uM), pH 7.2, 30 min
  EC50: 1.2 µM
hGPR65; hGPR EC50, NA = no activity
  EC50: 1.1 µM
hGPR65; hGPR EC50, pH 7.2, 30 min
  EC50: 0.699 µM
hGPR65; pH 7.2
  cAMP activity, hGPR65: at least 40%
hGPR65-SmBiT; 0-50 μM
  effect of concentration on mGs recruitment: dose-dependent effect
hGPR65-SmBiT; 10 μM
  mGs recruitment / engagement of hGPR65: showed engagement
hGPR65-SmBiT; 10 μM, HCl or H2O at cycle 10
  activity after HCl versus water, hGPR65: showed activity when preceded by the addition of HCl but not water
mGPR65; 1.56 μM, pH 7.2
  activity for mGPR65 among prioritized molecules: highest activity
mGPR65; HeLa cells
  cAMP response against mGPR65 among prioritized compounds: highest cAMP response
mGPR65; [3]
  Emax: 69.6%
mGPR65; NA = no activity
  Emax: 70.8%
mGPR65; mGPR EC50 (uM), 2nd mGPR column pair, NA = no activity
  EC50: 0.952 µM
mGPR65; mGPR EC50 (uM), first pair of columns, pH 7.2, 30 min
  EC50: 1.04 µM
mGPR65; mGPR EC50 (uM), second pair of columns, pH 7.2, 30 min
  EC50: 0.997 µM
mGPR65; mGPR EC50 (uM), NA = no activity
  EC50: 0.892 µM
mGPR65; pH 7.2
  cAMP activity, mGPR65: at least 40%
mGPR65-SmBiT
  mGs recruitment / engagement of mGPR65: showed engagement
mGPR65-SmBiT; HCl or H2O at cycle 10
  activity after HCl versus water, mGPR65: showed activity when preceded by the addition of HCl but not water
